Measured values taken from article doi:10.1101/2020.05.05.078071v1 (biorxiv, 2020).

Tests used:
rNaV1.4 [1] = biological target: rNaV1.4 (Rattus norvegicus, UniProt P15390); experiment: whole-cell patch clamp, three pulse train; type: cell-based
rNaV1.4 [2] = biological target: rNaV1.4 (Rattus norvegicus, UniProt P15390, F1579A); experiment: whole-cell patch clamp, three pulse train; type: cell-based
Sequence of rNaV1.4 (Rattus norvegicus, UniProt P15390, F1579A) (P15390 whole entry F1579A): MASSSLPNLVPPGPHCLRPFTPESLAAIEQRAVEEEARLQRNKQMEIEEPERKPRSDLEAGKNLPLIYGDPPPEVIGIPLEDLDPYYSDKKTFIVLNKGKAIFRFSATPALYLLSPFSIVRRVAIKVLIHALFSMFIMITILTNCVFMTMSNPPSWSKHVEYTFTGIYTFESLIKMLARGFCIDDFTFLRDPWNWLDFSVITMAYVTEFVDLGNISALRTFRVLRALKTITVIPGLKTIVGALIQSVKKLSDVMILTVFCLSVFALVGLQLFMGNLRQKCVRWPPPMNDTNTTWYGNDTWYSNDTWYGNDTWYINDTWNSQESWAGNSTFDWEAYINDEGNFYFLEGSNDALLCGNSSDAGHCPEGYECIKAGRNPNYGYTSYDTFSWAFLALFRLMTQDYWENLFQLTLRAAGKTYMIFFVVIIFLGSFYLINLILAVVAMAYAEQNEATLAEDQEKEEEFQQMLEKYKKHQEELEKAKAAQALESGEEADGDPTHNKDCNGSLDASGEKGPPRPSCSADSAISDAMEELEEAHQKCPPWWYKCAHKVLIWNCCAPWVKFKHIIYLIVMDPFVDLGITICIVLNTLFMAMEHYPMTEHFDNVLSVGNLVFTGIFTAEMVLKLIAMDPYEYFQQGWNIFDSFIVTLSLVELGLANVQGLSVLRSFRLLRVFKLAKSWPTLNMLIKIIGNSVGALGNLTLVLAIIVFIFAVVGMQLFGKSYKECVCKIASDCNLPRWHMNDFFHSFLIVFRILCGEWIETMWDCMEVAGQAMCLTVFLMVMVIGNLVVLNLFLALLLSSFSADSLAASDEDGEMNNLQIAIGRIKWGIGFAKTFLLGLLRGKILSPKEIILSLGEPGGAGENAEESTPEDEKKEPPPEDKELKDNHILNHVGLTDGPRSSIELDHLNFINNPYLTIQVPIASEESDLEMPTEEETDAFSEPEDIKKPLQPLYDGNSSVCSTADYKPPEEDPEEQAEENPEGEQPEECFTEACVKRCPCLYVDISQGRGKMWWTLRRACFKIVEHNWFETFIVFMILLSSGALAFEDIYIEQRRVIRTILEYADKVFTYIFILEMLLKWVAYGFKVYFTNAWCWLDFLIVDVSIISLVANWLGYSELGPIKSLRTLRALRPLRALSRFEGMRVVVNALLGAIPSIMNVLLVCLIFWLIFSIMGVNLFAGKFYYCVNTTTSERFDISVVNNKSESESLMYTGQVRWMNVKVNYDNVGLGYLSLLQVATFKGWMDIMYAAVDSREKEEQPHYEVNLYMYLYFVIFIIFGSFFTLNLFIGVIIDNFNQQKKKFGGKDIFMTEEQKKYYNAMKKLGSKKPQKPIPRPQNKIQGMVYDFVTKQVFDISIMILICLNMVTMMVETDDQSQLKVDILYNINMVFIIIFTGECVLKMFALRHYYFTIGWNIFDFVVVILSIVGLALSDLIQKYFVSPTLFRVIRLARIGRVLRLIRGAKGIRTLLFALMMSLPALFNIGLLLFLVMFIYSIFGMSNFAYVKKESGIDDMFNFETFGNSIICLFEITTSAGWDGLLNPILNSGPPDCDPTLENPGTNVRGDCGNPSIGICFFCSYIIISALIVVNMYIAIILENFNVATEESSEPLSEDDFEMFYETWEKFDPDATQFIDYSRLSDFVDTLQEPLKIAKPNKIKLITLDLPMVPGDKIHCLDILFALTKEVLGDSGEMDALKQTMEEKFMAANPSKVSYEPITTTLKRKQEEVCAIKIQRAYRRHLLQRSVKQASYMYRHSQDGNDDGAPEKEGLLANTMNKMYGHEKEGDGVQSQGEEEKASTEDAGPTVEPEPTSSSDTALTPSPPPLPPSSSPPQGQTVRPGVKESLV

Sequence of rNaV1.4 (Rattus norvegicus, UniProt P15390) (P15390 whole entry): as the sequence (P15390 whole entry F1579A) above, with A1579F counted along it

IC50 (rNaV1.4 [1]): 3.98 ± 1.32 µM | IC50 (rNaV1.4 [2]): 114 ± 20 µM
SMILES: Nc1nc2ccc(OC(F)(F)F)cc2s1 [riluzole]
